Experimental data reported in ChEMBL document CHEMBL5233269, “Anticancer potential of spirocompounds in medicinal chemistry: A pentennial expedition” (Eur J Med Chem, 2021).
≈ marks a conversion by molar mass, not a printed value.

Assays:
[1] = test system: Panel NCI-60 (60 carcinoma cell lines); assay: Growth inhibition of human Panel NCI-60 (60 carcinoma cell lines) cells; type: functional
LNCaP = assay: Anticancer activity against human LNCaP cells at 100 uM relative to control; type: functional
PC-3 [2] = assay: Anticancer activity against human PC-3 cells at 100 uM relative to control; type: functional
L929 = assay: Cytotoxicity against mouse L929 cells at 50 ug/ml relative to control; type: toxicity, cell-based; conditions: at 50 µg/mL
MDA-MB-231 [3] = assay: Cytotoxicity against human MDA-MB-231 cells at 50 ug/ml relative to control; type: functional; conditions: dose 50 µg/ml
ECa-109 cell line = assay: Cytotoxicity against human EC109 cells assessed as inhibition of tumor cell proliferation incubated for 72 hrs by MTT assay; type: functional, cell-based; conditions: ECa-109, 72 h
SMMC-7721 = assay: Cytotoxicity against human SMMC-7721 cells assessed as inhibition of tumor cell proliferation incubated for 72 hrs by MTT assay; type: functional, cell-based; conditions: SMMC-7721, 72 h
A549 [4] = assay: Cytotoxicity against human A549 cells assessed as inhibition of tumor cell proliferation incubated for 72 hrs by MTT assay; type: functional, cell-based; conditions: A549, 72 h
MGC-803 = assay: Cytotoxicity against human MGC-803 cells assessed as inhibition of tumor cell proliferation incubated for 72 hrs by MTT assay; type: functional, cell-based; conditions: MGC-803, 72 h
MCF7 [5] = assay: Cytotoxicity against human MCF7 cells assessed as reduction in cell growth; type: functional, cell-based
WI-38 = assay: Cytotoxicity against human WI-38 cells assessed as reduction in cell growth; type: functional, cell-based
Jurkat = assay: Antiproliferative activity against human Jurkat cells incubated for 72 hrs by MTT assay; type: functional, cell-based
MDA-MB-231 [6] = assay: Antiproliferative activity against human MDA-MB-231 cells incubated for 72 hrs by MTT assay; type: functional, cell-based; conditions: MDA-MB-231, 72 h
Caco-2 = assay: Antiproliferative activity against human Caco-2 cells incubated for 72 hrs by MTT assay; type: functional, cell-based; conditions: Caco-2, 72 h
MCF7 [7] = assay: Antiproliferative activity against human MCF7 cells incubated for 72 hrs by MTT assay; type: functional, cell-based; conditions: MCF7, 72 h
HeLa [8] = assay: Antiproliferative activity against human HeLa cells incubated for 72 hrs by MTT assay; type: functional, cell-based
HCT-116 = assay: Antiproliferative activity against human HCT-116 cells incubated for 72 hrs by MTT assay; type: functional, cell-based; conditions: HCT-116, 72 h
CCRF-CEM = assay: Antiproliferative activity against human CEM cells incubated for 72 hrs by MTT assay; type: functional, cell-based
A549 [9] = assay: Antiproliferative activity against human A549 cells incubated for 72 hrs by MTT assay; type: functional, cell-based; conditions: A549, 72 h
MCF7 [10] = assay: Antiproliferative activity against human MCF7 cells assessed as cell growth inhibition; type: functional, cell-based
MDA-MB-231 [11] = assay: Antiproliferative activity against human MDA-MB-231 cells assessed as cell growth inhibition; type: functional, cell-based
A-375 [12] = assay: Cytotoxicity against human A-375 cells at 10 ug/ml incubated for 24 hrs by MTT assay; type: functional; conditions: dose 10 µg/ml
A-375 [13] = assay: Cytotoxicity against human A-375 cells at 100 ug/ml incubated for 24 hrs by MTT assay; type: functional; conditions: dose 100 µg/ml
K562 = assay: Antiproliferative activity against human K562 cells measured upto 72 hrs by microscopy based analysis; type: functional, cell-based; conditions: K562, 72 h
U-937 = assay: Antiproliferative activity against human U-937 cells measured upto 72 hrs by microscopy based analysis; type: functional, cell-based; conditions: U-937, 72 h
[14] = Anticancer activity against human Panel (56 tumour cell lines) at 10 uM relative to control; type: functional
MCF7 [15] = assay: Growth inhibition of human MCF7 cells assessed as reduction in cell viability by SRB assay; type: functional
PC-3 [16] = assay: Growth inhibition of human PC-3 cells assessed as reduction in cell viability by SRB assay; type: functional
COLO 205 = assay: Growth inhibition of human COLO 205 cells assessed as reduction in cell viability by SRB assay; type: functional
HepG2 [17] = assay: Anticancer activity against human HepG2 cells assessed as reduction in cell viability; type: functional, cell-based
MCF7 [18] = assay: Anticancer activity against human MCF7 cells assessed as reduction in cell viability; type: functional, cell-based
A549 [19] = assay: Antiproliferative activity against human A549 cells assessed as reduction in cell viability; type: functional, cell-based
HeLa [20] = assay: Antiproliferative activity against human HeLa cells; type: functional, cell-based
MCF7 [21] = assay: Antiproliferative activity against human MCF7 cells assessed as reduction in cell viability; type: functional, cell-based
MDA-MB-231 [22] = assay: Antiproliferative activity against human MDA-MB-231 cells; type: functional, cell-based
HT-29 = assay: Antiproliferative activity against human HT-29 cells incubated for 2 days by MTT assay; type: functional, cell-based; conditions: HT-29, 48 h
HepG2 [23] = assay: Antiproliferative activity against human HepG2 cells incubated for 2 days by MTT assay; type: functional, cell-based; conditions: HepG2, 48 h
T47D = assay: Antiproliferative activity against human T47D cells incubated for 2 days by MTT assay; type: functional, cell-based; conditions: 48 h
MCF7 [24] = assay: Antiproliferative activity against human MCF7 cells incubated for 2 days by MTT assay; type: functional, cell-based; conditions: MCF7, 48 h
HFF = assay: Antiproliferative activity against human HFF cells incubated for 2 days by MTT assay; type: functional, cell-based; conditions: 48 h
[25] = molecular target: Tumour suppressor p53/oncoprotein Mdm2 (Homo sapiens) (UniProt P04637+Q00987); assay: Inhibition of MDM2/p53 (unknown origin) interaction at 10 uM relative to control; type: protein assay
Tumour suppressor p53/oncoprotein Mdm2 (Homo sapiens), sequence (P04637 whole entry, looked up): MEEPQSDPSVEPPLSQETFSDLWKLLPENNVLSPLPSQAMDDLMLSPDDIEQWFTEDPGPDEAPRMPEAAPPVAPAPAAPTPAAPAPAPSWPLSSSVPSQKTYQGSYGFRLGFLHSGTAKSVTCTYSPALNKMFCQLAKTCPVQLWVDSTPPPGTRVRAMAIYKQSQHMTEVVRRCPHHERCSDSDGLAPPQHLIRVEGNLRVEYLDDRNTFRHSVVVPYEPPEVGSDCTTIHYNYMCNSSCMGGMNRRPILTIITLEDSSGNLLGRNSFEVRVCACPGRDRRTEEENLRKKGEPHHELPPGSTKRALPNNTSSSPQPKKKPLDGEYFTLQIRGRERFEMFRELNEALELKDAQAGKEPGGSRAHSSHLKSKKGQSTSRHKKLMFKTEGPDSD
Tumour suppressor p53/oncoprotein Mdm2 (Homo sapiens), sequence (Q00987 whole entry, looked up): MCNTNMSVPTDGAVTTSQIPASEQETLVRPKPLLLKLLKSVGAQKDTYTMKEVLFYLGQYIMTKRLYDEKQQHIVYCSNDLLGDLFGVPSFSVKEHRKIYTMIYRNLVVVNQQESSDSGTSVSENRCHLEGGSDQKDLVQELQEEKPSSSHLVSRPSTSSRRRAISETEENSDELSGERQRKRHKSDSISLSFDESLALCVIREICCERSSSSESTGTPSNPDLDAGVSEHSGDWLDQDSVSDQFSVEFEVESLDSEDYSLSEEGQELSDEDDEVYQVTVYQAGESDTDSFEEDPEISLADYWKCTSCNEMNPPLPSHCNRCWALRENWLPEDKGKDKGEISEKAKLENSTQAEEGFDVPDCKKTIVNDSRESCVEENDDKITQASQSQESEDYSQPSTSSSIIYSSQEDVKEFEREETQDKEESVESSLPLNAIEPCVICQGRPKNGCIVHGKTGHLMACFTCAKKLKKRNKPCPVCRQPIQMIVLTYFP

MCF7 [26] = assay: Antiproliferative activity against human MCF7 cells by MTT assay; type: functional, cell-based
MDA-MB-231 [27] = assay: Antiproliferative activity against human MDA-MB-231 cells assessed as inhibition of cell viability by MTT assay; type: functional, cell-based

Structure (SMILES): COC1=CC2OC34Oc5cc(OC)ccc5C=C3CCCC4C=C2C=C1 (stereo not given)
- GI50 [1]: < 19 µM

Structure (SMILES): O=C(/C=C/c1cccc(F)c1)c1ccc(OP2(Oc3ccc(C(=O)/C=C/c4cccc(F)c4)cc3)=NP3(=NP4(=N2)Oc2ccccc2-c2ccccc2O4)Oc2ccccc2-c2ccccc2O3)cc1
- Activity (LNCaP): 63.78%
- Activity (PC-3 [2]): 43.71%

Structure (SMILES): CN1CCN(Cc2ccc([N+](=O)[O-])cc2)P12=NP(N1CCCCC1)(N1CCCCC1)=NP(N1CCCCC1)(N1CCCCC1)=N2 (stereo not given)
- Activity (L929): 70%
- Activity (MDA-MB-231 [3]): 30%

Structure (SMILES): C[C@]12CC[C@H](O)CC1=CCC1C2CC[C@@]2(C)C1CC[C@@H]2C1=CC2(C(=O)Nc3ccc(F)cc32)C(C#N)=C(N)N1 (stereo not given in full)
- IC50 (ECa-109 cell line): 2.6 µM
- IC50 (SMMC-7721): 10.9 µM
- IC50 (A549 [4]): 21.3 µM
- IC50 (MGC-803): 13.8 µM

Structure (SMILES): CN1C(=O)C2(SCC3C(=O)N(CC(=O)NN)N=C(c4ccc(Cl)c(Cl)c4)C32)c2ccccc21 (stereo not given)
- IC50 (MCF7 [5]): 8.16 µM
- IC50 (WI-38): 11.2 µM

Structure (SMILES): CON1c2ccccc2[C@@]2(CN=C(Nc3cc(C(F)(F)F)cc(C(F)(F)F)c3)S2)[C@H]1Nc1cc(C(F)(F)F)cc(C(F)(F)F)c1
- IC50 (Jurkat): 2 µM
- IC50 (MDA-MB-231 [6]): 3.5 µM
- IC50 (Caco-2): 19.7 µM
- IC50 (MCF7 [7]): 2 µM
- IC50 (HeLa [8]): 2.5 µM
- IC50 (HCT-116): 43.9 µM
- IC50 (CCRF-CEM): 1 µM
- IC50 (A549 [9]): 2.5 µM

Structure (SMILES): O=C1N(c2ccccc2)C(=O)C2(CC(c3ccccc3O)=NO2)N1C1CCCCC1 (stereo not given)
- IC50 (MCF7 [10]): 42.3 µM
- IC50 (MDA-MB-231 [11]): 67.9 µM

Structure (SMILES): CCN1C(=O)C2(c3ccccc31)N(C)CC(n1ccc3ccccc31)C2(C#N)C#N (stereo not given)
- Activity (A-375 [12]): 95.86%
- Activity (A-375 [13]): 85.69%

Structure (SMILES): CN1N=C(c2ccc(Cl)c(Cl)c2)C2C(CSC23CCCN3CCOCC(=O)NN)C1=O (stereo not given)
- IC50 (MCF7 [5]): 7.72 µM
- IC50 (WI-38): 10.4 µM

Structure (SMILES): CC1=CC(=O)C2(C(=O)O1)C(c1ccc(C(C)(C)C)cc1)CC(=O)CC2c1ccc(C(C)(C)C)cc1 (stereo not given)
- IC50 (K562): 58.6 µM
- IC50 (U-937): 43.7 µM

Structure (SMILES): O=C1N(C2CCCCC2)C(=O)C2(CC(c3ccccc3O)=NCCO2)N1C1CCCCC1 (stereo not given)
- IC50 (MCF7 [10]): 66.3 µM
- IC50 (MDA-MB-231 [11]): 97.1 µM

Structure (SMILES): CC(C)(C)OC(=O)N1CCC2(CC1)NC(=O)c1ccccc1N2
- inhibition at 10 µM [14]: 100%

Structure (SMILES): COP1(=O)N(C)N=NC12SC1=CCCCC1=C2C#N (stereo not given)
- GI50 (MCF7 [15]): 6.35 µM
- GI50 (PC-3 [16]): 12.4 µM
- GI50 (COLO 205): 18.4 µM

Structure (SMILES): C[C@]12CC[C@H](O)CC1=CCC1C2CC[C@@]2(C)C1CC[C@@H]2C1=CC2(C(=O)Nc3c(Cl)cccc32)C(C#N)=C(N)N1 (stereo not given in full)
- IC50 (ECa-109 cell line): 6.4 µM
- IC50 (SMMC-7721): 29.2 µM
- IC50 (A549 [4]): 33 µM
- IC50 (MGC-803): 17.2 µM

Structure (SMILES): N#Cc1c(-c2ccc(Cl)cc2)c2c(n(CC(=O)O)c1=O)N(c1ccc(N)cc1)C1(CCCCC1)S2
- IC50 (HepG2 [17]): 9.29 µg/mL (≈ 18.3 µM)
- IC50 (MCF7 [18]): 12.6 µg/mL (≈ 24.9 µM)

Structure (SMILES): Cc1ccccc1/C=C/C(=O)c1ccc(OP2(Oc3ccc(C(=O)/C=C/c4ccccc4)cc3)=NP3(=NP4(=N2)Oc2ccccc2-c2ccccc2O4)Oc2ccccc2-c2ccccc2O3)cc1 (stereo not given)
- Activity (LNCaP): 69.04%
- Activity (PC-3 [2]): 42.36%

Structure (SMILES): O=C1CC(c2ccccc2)C2(C(=O)Oc3ccccc3C2=O)C(c2ccccc2)C1 (stereo not given)
- IC50 (K562): 74 µM
- IC50 (U-937): 51.6 µM

Structure (SMILES): O=C1C=CC2(C=C1Br)OCC(=O)N2c1nc(-c2cccc(Cl)c2)nn1-c1ccccc1 (stereo not given)
- IC50 (A549 [19]): 0.0252 µM
- IC50 (HeLa [20]): 0.0453 µM
- IC50 (MCF7 [21]): 0.00411 µM
- IC50 (MDA-MB-231 [22]): 0.0008 µM

Structure (SMILES): COc1ccc(C2=NOC3(Cc4ccccc4C3=O)C2c2ccc(S(C)(=O)=O)cc2)cc1OC (stereo not given)
- IC50 (HT-29): 94.6 µM
- IC50 (HepG2 [23]): 0.059 µM
- IC50 (T47D): 21.4 µM
- IC50 (MCF7 [24]): 53.7 µM
- IC50 (HFF): 33.9 µM

Structure (SMILES): NC(=O)C1CN(C(=O)N2CCCCC2)C2(C(=O)Nc3ccccc32)C1c1ccccc1O (stereo not given)
- inhibition [25]: 65.4%

Structure (SMILES): Clc1cccc(Cl)c1C1=NO[C@@]2(CCCCO2)[C@H]1Br
- IC50 (MCF7 [26]): 52.4 µM
- IC50 (MDA-MB-231 [27]): 43.1 µM
